In patent US20240002388A1, “PYRIMIDINONE COMPOUNDS AND USES THEREOF” (HUTCHISON MEDIPHARMA LIMITED, priority 2020, published 2024):
pIC50: −log10 of the molar value.

What follows are molecules tested on U937 cell line (human histiocytic lymphoma cell line) (assay: U937 cell viability assay (TNF-α + Z-VAD-FMK induced necroptosis)). Details: Homo sapiens, U-937; U937 cells, hTNF-α 0.1 μg/mL + Z-VAD-FMK 50 μM, 20 hours, CellTiter-Glo.
Assay type: cell-based
Protocol: U937 cell line (human histiocytic lymphoma cell line): purchased from ATCC (American Type Culture Collection) Cell Bank, cultured in a 5% CO2, 37° C. incubator, and RPMI 1640 medium which contains L-glutamine, 1.5 g/L sodium bicarbonate, 2.383 g/L HEPES solution, 0.11 g/L sodium pyruvate and 4.5 g/L glucose, plus 10% fetal bovine serum (FBS) was used. • RPMI 1640 medium: GIBCO, Cat #A10491-01; • Fetal bovine serum (FBS): GIBCO, Cat #10099-141C; • Dimethyl sulfoxide (DMSO): Sigma, Cat #D2650; • Recombinant Human TNF-alpha Protein (hTNF-α): R&D system, Cat #210-TA-100; • Pan-Caspase inhibitor (Z-VAD-FMK): Selleckchem, Cat #S7023; • CellTiter-Glo 2.0 Cell Viability Assay kit: Promega, Cat #G9242; • Microwell plate reader: Envision, Perkin Elmer; • 96-well plate: Corning, Cat #3917.
The U937 cells at the logarithmic phase were taken out, centrifuged to remove the medium, washed with PRMI 1640 medium containing 1% FBS, and diluted with 1% FBS-containing RPMI 1640 medium to 2.5×10^5 cells/ml, inoculated at 70 μL/well into a 96-well plate, i.e., 1.75×10^4 cells/well. The plate was cultured in a 5% CO2, 37° C. cell incubator. After incubating for 1 hour, the test compound was diluted to the corresponding concentrations using DMSO with 3-fold serial dilution, then the corresponding concentration of DMSO diluted solution was diluted into 1% FBS-containing RPMI 1640 medium, and 10 μL/well of the diluted test compound with different concentrations (final concentration of test compound was 1.0, 0.333, 0.111, 0.037, 0.012, 0.004, 0.0014 and 0.0005 μM, while final concentration of DMSO was 0.3%) or 10 μL/well control solution (3% DMSO) were added to the cell culture system respectively, with the total volume being 80 μL/well; Then 10 μL of Z-VAD-FMK solution diluted with 1% FBS-containing RPMI 1640 medium (final concentration of 50 μM) or 10 μL of control solution (2.5% DMSO) was added to each well, with the total volume being 90 μL/well. The plate was incubated in a 5% CO2, 37° C. cell culture incubator for 1 hour.
After being cultured for 1 hour, 10 μL of human recombinant TNF-α protein diluted with 1% FBS-containing RPMI 1640 medium (final concentration of 0.1 μg/mL) or 10 μL/well control solution (1% FBS-containing RPMI 1640 medium) was added to each well. The plate was incubated in a 5% CO2, 37° C. cell culture incubator for 20 hours.
The cell culture plate was taken out from the incubator, and left to stand at room temperature for 30 minutes. Meanwhile, CellTiter-Glo viability assay kit was put from freezer to room temperature, and 50 μL of CellTiter-Glo reagent was added to all wells, the plate was shaken for 1 minutes, protected from light at room temperature for 10 minutes then read the plate on Envision to get the luminescence signal.
The 96-well plate in the dark was taken out, and the chemiluminescence was determined using the Envision microwell plate reader as the signal value of each well.
The mean signal value of the wells of the mixed solution of recombinant human TNF-alpha protein (final concentration of 0.1 μg/mL) and Pan-Caspase inhibitor (final concentration of 50 μM) was used as the lower value, and the mean signal value of the wells without stimulation was used as the upper value. According to the signal value of each well, the inhibition rate of each concentration of every compound was calculated, and the IC50 value of compound was obtained by Model 205 in XL-Fit 5.3 software (ID Business Solutions Limited).
Inhibition rate %=[(Luminescence readout of treated compound−Luminescence readout of positive control)/(Luminescence readout of negative control−Luminescence readout of positive control)]×100%, wherein

| Structure (SMILES) | pIC50 |
| --- | --- |
| CC(C)n1cncc(-c2ccc(C3(NC(=O)c4nc5n(n4)[C@@H](c4ccccc4)CC5)CC3)cc2)c1=O [Compound 15] | 7.70 |
| CC(C)n1cncc(-c2ccc(C3(NC(=O)c4ncc5cnn(CC6CCC6)c5n4)CC3)cc2)c1=O [Compound 62] | 8.70 |
| CC(C)n1ncc2cnc(C(=O)NC3(c4ccc(-c5cncn([C@H]6C[C@@H]6F)c5=O)cc4)CC3)nc21 [Compound 67] | 7.04 |
| Cn1cncc(-c2ccc(C3(NC(=O)c4nnc(Cc5ccccc5)o4)CC3)cc2)c1=O [Compound 11] | 6.86 |
| CC(C)n1ncc2cnc(C(=O)NC3(c4ccc(-c5cncn(CC(F)(F)F)c5=O)cc4)CC3)nc21 [Compound 38] | 7.89 |
| C[C@H](c1ccccc1)n1cnc(C(=O)NC2(c3ccc(-c4cncn(C)c4=O)cc3)CC2)n1 [Compound 55, (R)—N-(1-(4-(1-methyl-6-oxo-1,6-dihydropyrimidin-5-yl)phenyl)cyclopropyl)-1-(1-phenylethyl)-1H-1,2,4-triazole-3-carboxamide] | 8.15 |
| CC(C)n1cncc(-c2ccc(C3(NC(=O)c4ncc5cnn(CC6CC6)c5n4)CC3)c(F)c2)c1=O [Compound 72] | 8.70 |
| CC(C#N)n1cncc(-c2ccc(C3(NC(=O)c4ncc5cnn(C(C)C)c5n4)CC3)cc2)c1=O (stereo in doubt) [Compound 83, (S)—N-(1-(4-(1-(1-cyanoethyl)-6-oxo-1,6-dihydropyrimidin-5-yl)phenyl)cyclopropyl)-1-i-propyl-1H-pyrazolo[3,4-d]pyrimidine-6-carboxamide] | 7.77 |
| CC(C#N)n1cncc(-c2ccc(C3(NC(=O)c4ncc5cnn(C(C)C)c5n4)CC3)cc2)c1=O (stereo in doubt) [Compound 82, (R)—N-(1-(4-(1-(1-cyanoethyl)-6-oxo-1,6-dihydropyrimidin-5-yl)phenyl)cyclopropyl)-1-i-propyl-1H-pyrazolo[3,4-d]pyrimidine-6-carboxamide] | 7.74 |
| CC(C)n1ncc2cnc(C(=O)NC3(c4ccc(-c5cncn(C6CCOC6)c5=O)cc4)CC3)nc21 (stereo in doubt) [Compound 80, (R)-1-i-propyl-N-(1-(4-(6-oxo-1-(tetrahydrofuran-3-yl)-1,6-dihydropyrimidin-5-yl)phenyl)cyclopropyl)-1H-pyrazolo[3,4-d]pyrimidine-6-carboxamide] | 8.05 |
| CC(C)n1ncc2cnc(C(=O)NC3(c4ccc(-c5cncn(C6(C)CC6)c5=O)cc4)CC3)nc21 [Compound 78] | 8.10 |
| O=C(NC1(c2ccc(-c3cncn(CC4CC4)c3=O)cc2)CC1)c1ncc2cnn(CC3CC3)c2n1 [Compound 64] | 8.70 |
| CC(C)n1ncc2cnc(C(=O)NC3(c4ccc(-c5cncn([C@H]6C[C@H](F)C6)c5=O)cc4)CC3)nc21 [Compound 87, N-(1-(4-(1-(trans-3-fluorocyclobutyl)-6-oxo-1,6-dihydropyrimidin-5-yl)phenyl)cyclopropyl)-1-i-propyl-1H-pyrazolo[3,4-d]pyrimidine-6-carboxamide] | 7.96 |
| CC(C)n1ncc2cnc(C(=O)NC3(c4ccc(-c5cncn(C6CC6)c5=O)cc4)CC3)nc21 [Compound 12] | 7.74 |
| Cn1cncc(-c2ccc(C3(NC(=O)c4nnc(Cc5c(F)cccc5F)[nH]4)CC3)cc2)c1=O [Compound 18] | 7.09 |
| CC(C)n1cncc(-c2ccc(C3(NC(=O)c4nc5n(n4)[C@H](c4ccccc4)CC5)CC3)cc2)c1=O [Compound 16] | 8.70 |
| CC(C)n1ncc2cnc(C(=O)NC3(c4ccc(-c5cncn(C6COC6)c5=O)cc4)CC3)nc21 [Compound 41] | 7.19 |
| CC(C)n1ncc2cnc(C(=O)NC3(c4ccc(-c5cncn(CC6CC6)c5=O)c(F)c4)CC3)nc21 [Compound 75] | 8.70 |

| Structure (SMILES) | pIC50 |
| --- | --- |
| CC(C)n1ncc2cnc(C(=O)NC3(c4ccc(-c5cncn(CC6CC6)c5=O)cc4F)CC3)nc21 [Compound 74] | 9.00 |
| CC(C)n1cncc(-c2ccc(C3(NC(=O)c4ncc5cnn(-c6ccccn6)c5n4)CC3)cc2)c1=O [Compound 63] | 7.29 |
| C[C@@H](n1cncc(-c2ccc(C3(NC(=O)c4ncc5cnn(CC6CC6)c5n4)CC3)c(F)c2)c1=O)C(F)(F)F [Compound 76] | 8.52 |
| C[C@H](n1cncc(-c2ccc(C3(NC(=O)c4ncc5cnn(CC6CC6)c5n4)CC3)c(F)c2)c1=O)C(F)(F)F [Compound 71] | 8.52 |
| CC(C)n1cncc(-c2ccc(C3(NC(=O)c4ncn(Cc5ccccc5)n4)CC3)cc2)c1=O [Compound 17] | 9.00 |
| CC(C)n1ncc2cnc(C(=O)NC3(c4ccc(-c5cncn([C@H](C)C(F)(F)F)c5=O)cc4)CC3)nc21 [Compound 39] | 8.22 |
| CC(C)n1ncc2cnc(C(=O)NC3(c4ccc(-c5cncn(CC6CC6)c5=O)c(F)c4F)CC3)nc21 [Compound 95] | 8.52 |
| CC(C)n1ncc2cnc(C(=O)NC3(c4ccc(-c5cncn([C@H](C)C6CC6)c5=O)cc4)CC3)nc21 [Compound 84, (R)—N-(1-(4-(1-(1-cyclopropylethyl)-6-oxo-1,6-dihydropyrimidin-5-yl)phenyl)cyclopropyl)-1-i-propyl-1H-pyrazolo[3,4-d]pyrimidine-6-carboxamide] | 9.00 |
| CC(C)n1cncc(-c2ccc(C3(NC(=O)c4ncc5cnn(CC6CC6)c5n4)CC3)cc2)c1=O [Compound 61] | 8.52 |
| CC(C)n1ncc2cnc(C(=O)NC3(c4ccc(-c5cncn([C@@H]6C[C@@H]6F)c5=O)cc4)CC3)nc21 [Compound 69] | 8.05 |
| CC(C)n1ncc2cnc(C(=O)NC3(c4ccc(-c5cncn(C)c5=O)cc4)CC3)cc21 [Compound 28, 1-isopropyl-N-(1-(4-(1-methyl-6-oxo-1,6-dihydropyrimidin-5-yl)phenyl)cyclopropyl)-1H-pyrazolo[4,3-c]pyridine-6-carboxamide] | 6.87 |
| CC(C)n1ncc2cnc(C(=O)NC3(c4ccc(-c5cncn(C)c5=O)cc4F)CC3)nc21 [Compound 26] | 7.92 |
| Cn1cncc(-c2ccc(C3(NC(=O)c4ncc(Cc5ccccc5)o4)CC3)cc2)c1=O [Compound 10] | 8.10 |
| CC(C)n1ncc2cnc(C(=O)NC3(c4ccc(-c5cncn(C6CCC6)c5=O)cc4)CC3)nc21 [Compound 42] | 8.15 |
| CC(C)n1cncc(-c2ccc(C3(NC(=O)c4ncc5cnn(C(C)C)c5n4)CC3)c(F)c2)c1=O [Compound 34] | 8.15 |
| CC(C)n1ncc2cnc(C(=O)NC3(c4ccc(-c5cncn(C6CCOC6)c5=O)cc4)CC3)nc21 (stereo in doubt) [Compound 81, (S)-1-i-propyl-N-(1-(4-(6-oxo-1-(tetrahydrofuran-3-yl)-1,6-dihydropyrimidin-5-yl)phenyl)cyclopropyl)-1H-pyrazolo[3,4-d]pyrimidine-6-carboxamide] | 8.10 |
| CC[C@H](C)n1cncc(-c2ccc(C3(NC(=O)c4ncc5cnn(C(C)C)c5n4)CC3)cc2)c1=O [Compound 43] | 8.70 |
| C[C@@H](n1cncc(-c2ccc(C3(NC(=O)c4ncc5cnn(CC6CC6)c5n4)CC3)cc2)c1=O)C(F)(F)F [Compound 70] | 8.70 |

Same assay, conditions: U937 cells, hTNF-α 0.1 μg/mL + Z-VAD-FMK 50 μM, 20 hours, CellTiter-Glo

| Structure (SMILES) | pIC50 |
| --- | --- |
| CC(C)n1ncc2cnc(C(=O)NC3(c4ccc(-c5cncn([C@H]6C[C@@H](F)C6)c5=O)cc4)CC3)nc21 [Compound 88, N-(1-(4-(1-(cis-3-fluorocyclobutyl)-6-oxo-1,6-dihydropyrimidin-5-yl)phenyl)cyclopropyl)-1-i-propyl-1H-pyrazolo[3,4-d]pyrimidine-6-carboxamide] | 7.96 |
